{"source": "patent US20230255953A1", "about": "“USE OF ROLUPERIDONE IN PREVENTING RELAPSE IN SCHIZOPHRENIA PATIENTS” (Minerva Neurosciences, Inc., priority 2022, published 2023)", "key": {"[1]": {"tested_on": "patients with negative symptoms of schizophrenia", "assay": "Study #2 (MIN-101C07): Calgary Depression Scale for Schizophrenia", "assay_type": "in vivo, human", "details": "Week 12 DB, ITT", "excerpt": "Study #2 (also referred to as “MIN101C07”) was a Phase 3, randomized, DB, placebo-controlled, parallel-group 12-week study to evaluate the efficacy and safety of Roluperidone in patients ≥18 years to ≤55 years with negative symptoms of schizophrenia, followed by a 40-week OL extension. The study consisted of a pretreatment screening period of up to 28 days (including an antipsychotic medication washout period), a 12-week, DB, placebo-controlled period, and a 40-week OL period. Eligible patients (with moderate to severe negative symptoms of schizophrenia and stable positive symptoms but without severe symptoms of suspiciousness, agitation, hostility, uncooperativeness, or poor impulse control) were randomized 1:1:1 to receive Roluperidone 32 mg QD, Roluperidone 64 mg QD (GR01/B formulation, see U.S. Pat. No. 11,464,744), or placebo, orally, for 12 weeks. […] During the 40-week OL treatment extension, patients who were initially randomized to Roluperidone 32 mg or 64 mg continued treatment with the same dose, while patients who were initially randomized to placebo crossed over to Roluperidone 32 mg or 64 mg in a 1:1 ratio."}, "[2]": {"tested_on": "patients with negative symptoms of schizophrenia", "assay": "Study #1 (MIN-101C03): Calgary Depression Scale for Schizophrenia", "assay_type": "in vivo, human", "details": "Week 12 DB, ITT", "excerpt": "(§1) Phase 2b Study #1 (also referred to herein as “MIN-101C03”) was a Phase 2b, double-blind (“DB”), placebo-controlled, randomized, multicenter 12-week study to evaluate the efficacy, safety, and tolerability of Roluperidone in patients ≥18 years to ≤60 years with negative symptoms of schizophrenia, followed by a 24-week open-label (“OL”) extension. The primary objective of the study was to evaluate the efficacy of Roluperidone compared to placebo in improving the negative symptoms of schizophrenia as measured by the change from Baseline in the PANSS negative factor score of the PSM (“PANSS PSM”) over 12 weeks of treatment.\n(§2) The study consisted of a pretreatment screening period of up to 28 days (including washout), a 12-week, DB, placebo-controlled period, and a 24-week OL period. Eligible patients (who were symptomatically stable for at least 3 months and had scores of at least 20 on the PANSS negative subscale score) were randomized in a 1:1:1 ratio to receive oral Roluperidone (a modified-release, “MR”, formulation) 32 mg QD, Roluperidone 64 mg QD, or placebo for 12 weeks. […] During the 24-week, OL treatment extension period, patients who were initially randomized to Roluperidone 32 mg or 64 mg continued on the same dose, while patients who were initially randomized to placebo crossed over to Roluperidone 32 mg or 64 mg in a 1:1 ratio."}, "[3]": {"tested_on": "dopaminergic (DA) receptors", "details": "background statement; cited from earlier work"}, "schizophrenia patient": {"tested_on": "schizophrenia patient", "assay": "Case report Patient X: Roluperidone monotherapy over 2+ years", "assay_type": "in vivo, human", "details": "64 mg/day monotherapy, two years", "description": "Patient X presented with flat effect and restricted emotional expression, poor motivation to do much more than watch television and occasionally participate in occupational therapy for a few hours a week. Patient could not fully concentrate enough to even read. During the course of monotherapy with Roluperidone (64 mg/day), patient saw gradual improvement in their negative and cognitive symptoms. This allowed the patient to find employment. Their affect is no longer restricted and they read full novels on a regular basis with no trouble concentrating, and enjoys and looks forward to all their various daily activities."}, "cholinergic receptors": {"tested_on": "cholinergic receptors", "details": "background statement; cited from earlier work"}, "[4]": {"tested_on": "patients with negative symptoms of schizophrenia", "assay": "Study #1 (MIN-101C03): CGI-S and CGI-I", "assay_type": "in vivo, human", "details": "Week 12 DB, ITT", "description": "The CGI-S is a clinician-rated scale that is designed to rate the severity of the patient's illness at the time of assessment, including knowledge of the patient's history, psychosocial circumstances, symptoms, behavior, and the impact of the symptoms on the patient's ability to function relative to the clinician's past experience with patients who have the same diagnosis and similar improvement with treatment. Considering total clinical experience, a patient is assessed on severity of mental illness at the time of rating, where 1=normal (not at all ill); 2=borderline mentally ill; 3=mildly ill; 4=moderately ill; 5=markedly ill; 6=severely ill; or 7=extremely ill.\nThe CGI-S and CGI-I were assessed at the timepoints described in Table 7. The CGI-S and CGI-I were exploratory endpoints in Studies MIN-101C03 and MIN-101C07.\nas §1, §2"}}}
{"substance": "1H-Isoindol-1-one,2-[ [1-[2-(4-fluorophenyl)-2-oxoethyl]-4-piperidinyl]methyl]-2,3-dihydro-, hydrochloride, hydrate (1:1:2) [Roluperidone]", "values": [{"measurement": "Change from Baseline LS Mean: Calgary Depression Scale for Schizophrenia", "setting": "[1]; 32 mg QD", "value": "−0.2"}, {"measurement": "Effect Size (Cohen's d) vs Placebo: Calgary Depression Scale for Schizophrenia", "setting": "[1]; 32 mg QD", "value": 0.21}, {"measurement": "Change from Baseline LS Mean: Calgary Depression Scale for Schizophrenia", "setting": "[1]; 64 mg QD", "value": "−0.1"}, {"measurement": "Effect Size (Cohen's d) vs Placebo: Calgary Depression Scale for Schizophrenia", "setting": "[1]; 64 mg QD", "value": 0.14}, {"measurement": "Change from Baseline LS Mean: Calgary Depression Scale for Schizophrenia", "setting": "[2]; 32 mg QD", "value": "−0.37"}, {"measurement": "Effect Size vs Placebo: Calgary Depression Scale for Schizophrenia", "setting": "[2]; 32 mg QD", "value": 0.25}, {"measurement": "Change from Baseline LS Mean: Calgary Depression Scale for Schizophrenia", "setting": "[2]; 64 mg QD", "value": "−0.71"}, {"measurement": "Effect Size vs Placebo: Calgary Depression Scale for Schizophrenia", "setting": "[2]; 64 mg QD", "value": 0.46}, {"measurement": "Affinity", "setting": "[3]", "value": "very low or no affinity"}, {"measurement": "Relapse under monotherapy", "setting": "schizophrenia patient", "value": "has not had a relapse"}, {"measurement": "Affinity", "setting": "cholinergic receptors", "value": "very low or no affinity"}, {"measurement": "Change from Baseline: Clinical Global Impression of Severity (observed change)", "setting": "[4]; 32 mg QD", "value": "−0.40"}, {"measurement": "Effect Size vs Placebo: Clinical Global Impression of Improvement", "setting": "[4]; 32 mg QD", "value": 0.33}, {"measurement": "Effect Size vs Placebo: Clinical Global Impression of Severity", "setting": "[4]; 32 mg QD", "value": 0.35}, {"measurement": "Change from Baseline: Clinical Global Impression of Severity (observed change)", "setting": "[4]; 64 mg QD", "value": "−0.40 (0.1)"}, {"measurement": "Effect Size vs Placebo: Clinical Global Impression of Improvement", "setting": "[4]; 64 mg QD", "value": 0.57}, {"measurement": "Effect Size vs Placebo: Clinical Global Impression of Severity", "setting": "[4]; 64 mg QD", "value": 0.43}]}
